In patent US20230173067A1 (Seagen Inc., priority 2020, published 2023):

Legend:
[1] = tested on: CTG-0784 CRC PDX model; experiment: CTG-0784 HER2 positive CRC PDX model, tumor growth inhibition; format: in vivo, Mice
Method: (§1) The TGI index is calculated for a particular time point (e.g., a specific number of days into an experiment or clinical trial) according to the following formula: […]
(§2) where “Tx Day 0” denotes the first day that treatment is administered (i.e., the first day that an experimental therapy or a control therapy (e.g., vehicle only) is administered) and “Tx Day X” denotes X number of days after Day 0. […] As a non-limiting example, in an experiment where study day 0 corresponds to “Tx Day 0” and the TGI index is calculated on study day 28 (i.e., “Tx Day 28”), if the mean tumor volume in both groups on study day 0 is 250 mm^3 and the mean tumor volumes in the experimental and control groups are 125 mm^3 and 750 mm^3, respectively, then the TGI index on day 28 is 125%.
(§3) Tucatinib was administered orally at a dose of 50 mg/kg twice per day for 28 days (study days 0-27). […] A vehicle-only group was included as a negative control.

[2] = tested on: CTG-0138 esophageal cancer PDX model; experiment: CTG-0138 HER2 positive esophageal cancer PDX model, tumor growth inhibition; format: in vivo, Mice
Method: as §1, §2, §3

[3] = tested on: GXA 3039 gastric cancer PDX model; experiment: GXA 3039 HER2 positive gastric cancer PDX model, tumor growth inhibition; format: in vivo, Mice
Method: as §1, §2, §3

[4] = tested on: Calu-3 cells; experiment: Response of Calu-3 cells to tucatinib in vitro; format: cell-based; settings: previously demonstrated
[5] = tested on: GXA 3038 gastric cancer PDX model; experiment: GXA 3038 HER2 positive gastric cancer PDX model, tumor growth inhibition; format: in vivo, Mice
Method: as §1, §2, §3

[6] = tested on: CTG-0137 esophageal cancer PDX model; experiment: CTG-0137 HER2 positive esophageal cancer PDX model, tumor growth inhibition; format: in vivo, Mice
Method: as §1, §2, §3

[7] = tested on: CTG-0121 CRC PDX model; experiment: CTG-0121 HER2 positive CRC PDX model, tumor growth inhibition; format: in vivo, Mice
Method: as §1, §2, §3

[8] = tested on: CTG-0927 HER2 positive cholangiocarcinoma PDX model; experiment: CTG-0927 HER2 positive cholangiocarcinoma PDX model, tumor growth inhibition; format: in vivo, Mice; settings: CTG-0927 cholangiocarcinoma PDX model
Method: as §1, §2, §3

[9] = tested on: NCI-H2170 cells; experiment: Response of NCI-H2170 cells to tucatinib in vitro; format: cell-based; settings: previously demonstrated
[10] = tested on: CTG-0383 CRC PDX model; experiment: CTG-0383 HER2 positive CRC PDX model, tumor growth inhibition; format: in vivo, Mice
Method: as §1, §2, §3

[11] = tested on: NCI-H2170 NSCLC xenograft model; experiment: NCI-H2170 HER2 positive NSCLC xenograft model, tumor growth inhibition; format: in vivo, Mice
Method: as §1, §2
(§4) For the Calu-3 study, tucatinib was administered orally at a dose of 50 mg/kg twice per day for 21 days, beginning on study day 7. […] A vehicle-only group was included as a negative control.
For the NCI-H2170 study, tucatinib was administered orally at a dose of 50 mg/kg twice per day for 21 days, beginning on study day 18. […] A vehicle-only group was included as a negative control.

[12] = tested on: GXA 3054 gastric cancer PDX model; experiment: GXA 3054 HER2 positive gastric cancer PDX model, tumor growth inhibition; format: in vivo, Mice
Method: as §1, §2, §3

[13] = tested on: Calu-3 NSCLC xenograft model; experiment: Calu-3 HER2 positive NSCLC xenograft model, tumor growth inhibition; format: in vivo, Mice
Method: as §1, §2, §4

Cc1cc(Nc2ncnc3ccc(NC4=NC(C)(C)CO4)cc23)ccc1Oc1ccn2ncnc2c1 [Tucatinib, tucatinib]
effect on tumor growth (in words) [1]: inhibited tumor growth | effect on tumor growth (in words) [2]: inhibited tumor growth | effect on tumor growth (in words) [3]: inhibited tumor growth | response to tucatinib in vitro [4]: good responses | effect on tumor growth (in words) [5]: inhibited tumor growth | effect on tumor growth (in words) [6]: inhibited tumor growth | effect on tumor growth (in words) [7]: inhibited tumor growth | effect on tumor growth (in words) [8]: inhibited tumor growth | response to tucatinib in vitro [9]: good responses | effect on tumor growth (in words) [10]: inhibited tumor growth | effect on tumor growth (in words) [11]: inhibited tumor growth | effect on tumor growth (in words) [12]: inhibited tumor growth | effect on tumor growth (in words) [13]: inhibited tumor growth
